Laboratory results reported in patent publication US6054459A, “Substituted 1,2,3,4-tetrahydro-5-nitro-pyrimidines” (priority 1994, dated 2000).

Test system: not listed separately
Test: lg P (physical data)
Details: not given

For `CCOCCOCCNC(=O)OCCCCCCN1CC([N+](=O)[O-])=C2N(Cc3ccc(Cl)nc3)CCN2C1` [Example 47], which logP is on record?
Its logP is 1.63.

With `CCCCNC(=O)OCCCCCN1CC([N+](=O)[O-])=C2N(Cc3cnc(Cl)s3)CCN2C1` [Example 78] as the molecule, how does the logP read?
Its logP is 1.73.

With `COCCNC(=O)OCCCCCCN1CC([N+](=O)[O-])=C2N(Cc3ccc(Cl)nc3)CCN2C1` [Example 48] as the molecule, how does the logP read?
Its logP is 1.44.

Which logP does the source give for `O=C(Nc1ccc(S(=O)(=O)C(F)(F)F)cc1)OCCCCCN1CC([N+](=O)[O-])=C2N(Cc3ccc(Cl)nc3)CCN2C1` [Example 37] here?
The logP was 2.29.

For `O=C(Nc1ccccc1)OCCCCCCN1CC([N+](=O)[O-])=C2N(Cc3ccc(Cl)nc3)CCN2C1` [Example 50], which logP is on record?
Its logP is 2.01.

For `CC(C)(C)CNC(=O)OCCCCCN1CC([N+](=O)[O-])=C2N(Cc3ccc(Cl)nc3)CCN2C1` [Example 43], which logP is on record?
The logP was 2.01.

With `O=C(Nc1ccc(Cl)c(Cl)c1)OCCCCN1CC([N+](=O)[O-])=C2N(Cc3ccc(Cl)nc3)CCN2C1` [Example 65] as the molecule, how does the logP read?
The logP was 1.53.

For `CC(COC(C)(C)C)NC(=O)OCCN1CC([N+](=O)[O-])=C2N(Cc3ccc(Cl)nc3)CCN2C1` (centres unmarked) [Example 33], which logP is on record?
Its logP is 2.26.

Which logP does the source give for `O=C(Nc1ccc(SC(F)(F)F)cc1)OCCCCCN1CC([N+](=O)[O-])=C2N(Cc3ccc(Cl)nc3)CCN2C1` [Example 44] here?
Its logP is 2.74.

Which logP does the source give for `O=C(Nc1ccccc1)OCCCCN1CC([N+](=O)[O-])=C2N(Cc3ccc(Cl)nc3)CCN2C1` [Example 61] here?
Its logP is 1.72.

For `CCOCCOCCNC(=O)OCCN1CC([N+](=O)[O-])=C2N(Cc3ccc(Cl)nc3)CCN2C1` [Example 32], which logP is on record?
The logP was 1.26.

For `CCCCNC(=O)OC(C)CN1CC([N+](=O)[O-])=C2N(Cc3ccc(Cl)nc3)CCN2C1` (centres unmarked) [Example 75], which logP is on record?
Its logP is 1.63.

With `O=[N+]([O-])C1=C2N(Cc3cnc(Cl)s3)CCN2CN(CCCCCO)C1` [II-16] as the molecule, how does the logP read?
The logP was 0.71.

With `O=C(Nc1ccc(S(=O)(=O)C(F)(F)F)cc1)OCCCCN1CC([N+](=O)[O-])=C2N(Cc3ccc(Cl)nc3)CCN2C1` [Example 60] as the molecule, how does the logP read?
Its logP is 2.22.

With `CCOCCOCCNC(=O)OCCCCCN1CC([N+](=O)[O-])=C2N(Cc3ccc(Cl)nc3)CCN2C1` [Example 35] as the molecule, how does the logP read?
The logP was 1.44.

For `CC(=O)OCCNC(=O)OCCCCCCN1CC([N+](=O)[O-])=C2N(Cc3ccc(Cl)nc3)CCN2C1` [Example 51], which logP is on record?
The logP was 1.47.

With `O=C(Nc1ccccc1)OCCCCCN1CC([N+](=O)[O-])=C2N(Cc3ccc(Cl)nc3)CCN2C1` [Example 38] as the molecule, how does the logP read?
Its logP is 1.79.

Which logP does the source give for `O=C(Nc1ccc(S(=O)(=O)C(F)(F)F)cc1)OCCCCCCN1CC([N+](=O)[O-])=C2N(Cc3ccc(Cl)nc3)CCN2C1` [Example 49] here?
Its logP is 2.51.

With `CC(C)(C)C(=O)OCCNC(=O)OCCCCCN1CC([N+](=O)[O-])=C2N(Cc3ccc(Cl)nc3)CCN2C1` [Example 40] as the molecule, how does the logP read?
Its logP is 1.81.

Which logP does the source give for `O=C(Nc1ccc(SC(F)(F)F)cc1)OCCCCCCN1CC([N+](=O)[O-])=C2N(Cc3ccc(Cl)nc3)CCN2C1` [Example 56] here?
The logP was 2.71.

Which logP does the source give for `COC(C)(C)CNC(=O)OCCCCCN1CC([N+](=O)[O-])=C2N(Cc3ccc(Cl)nc3)CCN2C1` [Example 45] here?
The logP was 1.56.

For `CC(C)(C)NC(=O)OCCCCCCN1CC([N+](=O)[O-])=C2N(Cc3cnc(Cl)s3)CCN2C1` [Example 79], which logP is on record?
Its logP is 1.9.

Which logP does the source give for `O=[N+]([O-])C1=C2N(Cc3cnc(Cl)s3)CCN2CN(CCCCCCO)C1` [II-15] here?
The logP was 0.94.

Which logP does the source give for `COCCNC(=O)OCCCN1CC([N+](=O)[O-])=C2N(Cc3ccc(Cl)nc3)CCN2C1` [Example 31] here?
The logP was 1.11.

With `CC(C)(C)CNC(=O)OCCCCN1CC([N+](=O)[O-])=C2N(Cc3ccc(Cl)nc3)CCN2C1` [Example 66] as the molecule, how does the logP read?
Its logP is 1.75.

Which logP does the source give for `CC(C)(C)CNC(=O)OCCCCCCN1CC([N+](=O)[O-])=C2N(Cc3ccc(Cl)nc3)CCN2C1` [Example 55] here?
The logP was 2.05.

For `CC(C)(C)C(=O)OCCNC(=O)OCCCCN1CC([N+](=O)[O-])=C2N(Cc3ccc(Cl)nc3)CCN2C1` [Example 63], which logP is on record?
Its logP is 1.73.

For `CC(=O)OCCNC(=O)OCCCCN1CC([N+](=O)[O-])=C2N(Cc3ccc(Cl)nc3)CCN2C1` [Example 62], which logP is on record?
The logP was 1.22.

For `COCCNC(=O)OCCCCCN1CC([N+](=O)[O-])=C2N(Cc3ccc(Cl)nc3)CCN2C1` [Example 36], which logP is on record?
Its logP is 1.24.

With `CCOCCOCCNC(=O)OCCCCN1CC([N+](=O)[O-])=C2N(Cc3ccc(Cl)nc3)CCN2C1` [Example 59] as the molecule, how does the logP read?
Its logP is 1.36.

With `CC(=O)OCCNC(=O)OCCCCCN1CC([N+](=O)[O-])=C2N(Cc3ccc(Cl)nc3)CCN2C1` [Example 39] as the molecule, how does the logP read?
Its logP is 0.82.

For `COC(C)(C)CNC(=O)OCCCCCCN1CC([N+](=O)[O-])=C2N(Cc3ccc(Cl)nc3)CCN2C1` [Example 57], which logP is on record?
Its logP is 1.6.

Which logP does the source give for `CC(C)(C)C(=O)OCCNC(=O)OCCCCCCN1CC([N+](=O)[O-])=C2N(Cc3ccc(Cl)nc3)CCN2C1` [Example 52] here?
The logP was 1.98.

With `COCCOCCNC(=O)OCCCCCN1CC([N+](=O)[O-])=C2N(Cc3ccc(Cl)nc3)CCN2C1` [Example 34] as the molecule, how does the logP read?
The logP was 1.28.

Which logP does the source give for `O=C(Nc1ccc(Cl)cc1)OCCCCCN1CC([N+](=O)[O-])=C2N(Cc3ccc(Cl)nc3)CCN2C1` [Example 41] here?
Its logP is 2.09.

With `COCCOCCNC(=O)OCCCCCCN1CC([N+](=O)[O-])=C2N(Cc3ccc(Cl)nc3)CCN2C1` [Example 46] as the molecule, how does the logP read?
The logP was 1.47.

For `COCCOCCNC(=O)OCCCCN1CC([N+](=O)[O-])=C2N(Cc3ccc(Cl)nc3)CCN2C1` [Example 58], which logP is on record?
Its logP is 1.2.

For `O=C(Nc1ccc(Cl)cc1)OCCCCCCN1CC([N+](=O)[O-])=C2N(Cc3ccc(Cl)nc3)CCN2C1` [Example 53], which logP is on record?
Its logP is 2.27.

Which logP does the source give for `O=C(Nc1ccc(Cl)c(Cl)c1)OCCCCCCN1CC([N+](=O)[O-])=C2N(Cc3ccc(Cl)nc3)CCN2C1` [Example 54] here?
The logP was 2.59.

Test system: Plutella maculipennis
Test: Plutella test
Type: in vivo, Plutella maculipennis (diamond-back moth)
Details: 72 h, active compound concentration 0.01 %, after 3d, read-out: Degree of destruction in % after 3d
Method: Solvent: 7 parts by weight of dimethylformamide
Emulsifier: 1 part by weight of alkylaryl polyglycol ether
To produce a suitable preparation of active compound, 1 part by weight of active compound is mixed with the stated amount of solvent and the stated amount of emulsifier, and the concentrate is diluted with water to the desired concentration.
Cabbage leaves (Brassica oleracea) are treated by being dipped into the preparation of active compound of the desired concentration and are infested with caterpillars of the diamond-back moth (Plutella maculipennis) while the leaves are still moist.
After the desired period of time, the destruction in % is determined. 100% means that all the caterpillars have been killed; 0% means that none of the caterpillars have been killed.

With `O=C(NCCCCCCCl)OCCCN1CC([N+](=O)[O-])=C2N(Cc3ccc(Cl)nc3)CCN2C1` [drawing 132] as the molecule, how does the mortality at 0.01 % read?
The mortality at 0.01 % was 100%.

Which mortality at 0.01 % does the source give for `O=C(NCCN1CC([N+](=O)[O-])=C2N(Cc3ccc(Cl)nc3)CCN2C1)OCc1ccccc1` [drawing 127] here?
Its mortality at 0.01 % is 100%.

For `CC(C)(C)CNC(=O)OCCCN1CC([N+](=O)[O-])=C2N(Cc3ccc(Cl)nc3)CCN2C1`, which mortality at 0.01 % is on record?
Its mortality at 0.01 % is 100%.

Same assay, conditions: 72 h, active compound concentration 0.1 %, after 3d, read-out: Degree of destruction in % after 3d

With `O=C(NCCCCCCCl)OCCCN1CC([N+](=O)[O-])=C2N(Cc3ccc(Cl)nc3)CCN2C1` [drawing 132] as the molecule, how does the mortality at 0.1 % read?
Its mortality at 0.1 % is 100%.

With `O=C(NCCN1CC([N+](=O)[O-])=C2N(Cc3ccc(Cl)nc3)CCN2C1)OCc1ccccc1` [drawing 127] as the molecule, how does the mortality at 0.1 % read?
Its mortality at 0.1 % is 100%.

Which mortality at 0.1 % does the source give for `CC(C)(C)CNC(=O)OCCCN1CC([N+](=O)[O-])=C2N(Cc3ccc(Cl)nc3)CCN2C1` here?
Its mortality at 0.1 % is 100%.

Same assay, conditions: 72 h, read-out: Degree of destruction in % after 3d

Which results are given for `CCOC(=O)NCCN1CC([N+](=O)[O-])=C2N(Cc3ccc(Cl)nc3)CCN2C1` [drawing 124]?
mortality at 0.01 %: 100%; mortality at 0.1 %: 100%

For `CC(=O)OCCCN1CC([N+](=O)[O-])=C2N(Cc3ccc(Cl)nc3)CCN2C1` [drawing 129], which mortality at 0.01 % is on record?
The mortality at 0.01 % was 100%.

What about the mortality at 0.1 % of the same molecule?
The mortality at 0.1 % was 100%.

Which results are given for `CC(C)(C)OC(=O)NCCN1CC([N+](=O)[O-])=C2N(Cc3ccc(Cl)nc3)CCN2C1` [drawing 123]?
mortality at 0.01 %: 100%; mortality at 0.1 %: 100%

With `CC(=O)OCCN1CC([N+](=O)[O-])=C2N(Cc3ccc(Cl)nc3)CCN2C1` as the molecule, how does the mortality at 0.01 % read?
The mortality at 0.01 % was 100%.

And the mortality at 0.1 %?
The mortality at 0.1 % was 100%.

Which mortality at 0.01 % does the source give for `CCOC(=O)NCCCN1CC([N+](=O)[O-])=C2N(Cc3ccc(Cl)nc3)CCN2C1` [drawing 126] here?
The mortality at 0.01 % was 100%.

And the mortality at 0.1 %?
Its mortality at 0.1 % is 100%.

Which mortality at 0.01 % does the source give for `CC(=O)NCCN1CC([N+](=O)[O-])=C2N(Cc3ccc(Cl)nc3)CCN2C1` [drawing 125] here?
Its mortality at 0.01 % is 100%.

What about the mortality at 0.1 % of the same molecule?
Its mortality at 0.1 % is 100%.

With `CNC(=O)OCCCN1CC([N+](=O)[O-])=C2N(Cc3ccc(Cl)nc3)CCN2C1` [drawing 128] as the molecule, how does the mortality at 0.01 % read?
The mortality at 0.01 % was 100%.

And the mortality at 0.1 %?
The mortality at 0.1 % was 100%.
